Test results reported in patent US20220354949A1, “NOVEL COMPOUNDS” (XENIOPRO GmbH, priority 2018, published 2022).

Key:
Assay type in all cases: cell-based
[1] = test system: Notch signaling (human Notch1 receptor, hNotch1ΔE, CSL luciferase reporter in HeLa cells); experiment: Notch reporter assay (dual luciferase, HeLa cells transfected with hNotch1ΔE); conditions: compounds and controls at 10 μM
Description: The activation level of Notch signaling can be quantified in vitro reliably by measuring the expression levels of Notch specific target genes. This can be accomplished by the quantification of corresponding mRNA or protein of a particular Notch target gene. Alternatively, cells can be genetically modified to carry a luciferase gene as an artificial Notch target gene, which is expressed in dependence of Notch activity. In this setting, Notch signaling levels can be quantified by measuring the luciferase-derived bioluminescence values.
An according Notch-reporter assay, i.e. a luciferase-based luminescence readout, was used here to quantify the ability of the claimed compounds to augment Notch signaling in a cellular system. […] After 24 hours of transfection, the transfected cells were carefully detached from the dish using 0.5 mM EDTA in PBS and seeded into 96-well plates suitable for luminescence readouts (CORNING, #3610) at 10′000 cells per well. […] Directly after the lysis, first the Firefly and then the Renilla luciferase values were measured consecutively from the same well with a luminescence reader immediately after applying 15 μL per well each of the corresponding enzyme substrates needed to create the luminescence signals (Promega, Dual-Luciferase® Reporter Assay System, #E1910). […]

[2] = test system: HH cells (human cutaneous T-cell lymphoma cells); experiment: Proliferation assay (alamarBlue) with HH cells; conditions: 20 μM, relative to DMSO basis level 1.0, Table 60 (compounds disclosed in PCT/EP2018/054686)
Description: (§1) The antiproliferative activities of compounds falling under formula (Ia), (Ib) and (Ic), respectively, were investigated on cells or cell lines originating from a disorder of the haematopoietic system, including the myeloid cell compartment and the lymphoid cell compartment (T-cells and B-cells), the neuroendocrine system, the cervix, the breast, the ovaries, the lung, the gastrointestinal tract, and the mucosal epithelium, as well as from the skin epithelium and from the muscle. To this end, HL-60 cells, NB-4 cells, HH cells, RPMI-8402 cells, TANOUE cells, TT cells, HeLa cells, MDA-MB-231 cells, FU-OV-1 cells, LOU-NH91 cells, 23132/87 cells, CAL-27 cells, BHY cells, SCC-25 cells, A-431 cells, human primary epidermal keratinocytes (HPEK), and C2C12 cells were seeded into 96-well plates suitable for fluorescence assays (CORNING #3598) at following initial cell numbers: 1000 cells per well for HL-60; 1000 cells per well for NB-4; 5000 cells per well for HH; 5000 cells per well for RPMI-8402; 1500 cells per well for TANOUE; 9000 cells per well for TT; 2000 cells per well for HeLa; 3000 cells per well for MDA-MB-231; 3000 cells per well for FU-OV-1; 4000 cells per well for LOU-NH91; 2000 cells per well for 23132/87; 2000 cells per well for CAL-27; 1500 cells per well for BHY; 1500 cells per well for SCC-25; 700 cells per well for A-431; 1000 cells per well for HPEK; 500 cells per well for C2C12. The cells were treated with compounds at indicated final concentrations (diluted from the 1000× stock-solutions in DMSO to a final DMSO concentration of 0.1% v/v in H2O (Water For Injection, WFI, Fisherscientific #10378939)) or with the empty carrier DMSO at 0.1% v/v as control for 5 days. At day 5 after starting the treatments the cells were subjected to the alamarBlue® Proliferation Assay (Bio-Rad Serotec GmbH, BUF012B) according to the protocol of the manufacturer. The readout was taken with a multi-well plate-reader in the fluorescence mode with applying a filter for excitation at 560 nm (band width 10 nm) and for emission at 590 nm (band width 10 nm). Control treatments for growth inhibition with commercial compounds such as Methotrexate (MTREX) and Resveratrol (RES) were included on every plate. Some of the test compounds of the present invention were obtained and applied as their salts. According cases are indicated in the column “Specification” in Table 55 to Table 92 and by their sum formula in Table 93.
(§2) The assays were performed in duplicate or more replicates of independent single experiments each containing a six-fold replicate for every condition. For every individual plate, the measured fluorescence intensity values of the conditions with compound treatment were normalized against the corresponding equally weighted arithmetic mean of the fluorescence intensity values of the six DMSO treated control wells in order to obtain the relative values to a baseline level of 1.0.
(§3) Two independent outlier analyses were performed according to the methods by Peirce and Chauvenet (Ross, Journal of Engineering Technology 2003, 1-12). Outliers confirmed by at least one of the methods were excluded from the calculations but not more than one value out of six per compound within a single experiment. The weighted arithmetic mean (here abbreviated as AVEw) for each compound was calculated from the normalized values over all independent replicates of the single experiments comprising the six replicates each. The corresponding standard deviation for the weighted arithmetic mean was calculated according to the method described by Bronstein et al. (Bronstein, Semendjajew, Musiol, Müihlig, Taschenbuch der Mathematik, 5th edition 2001 (German), publisher: Verlag Harri Deutsch, Frankfurt am Main and Thun) and was combined with the Gauß' error propagation associated with the performed calculation for the normalization. The resulting standard deviation is herein referred to as “combined standard deviation”. […]

[3] = test system: TANOUE cells (human B cell leukemia cells); experiment: Proliferation assay (alamarBlue) with TANOUE cells; conditions: Homo sapiens, B-cell, compound at 20 μM, Table 63 (novel compounds), read-out: Activity Range: weighted arithmetic mean (AVEw) of normalized fluorescence intensity relative to DMSO basis level 1.0
Description: as §1, §2, §3

[4] = test system: MDA-MB-231 cells (human breast carcinoma cells); experiment: Proliferation assay (alamarBlue) with MDA-MB-231 cells; conditions: Homo sapiens, compound at 20 μM, Table 69 (novel compounds), read-out: Activity Range: weighted arithmetic mean (AVEw) of normalized fluorescence intensity relative to DMSO basis level 1.0
Description: as §1, §2, §3

Structure (SMILES) | Activity Range: weighted arithmetic mean (AVEw) of double-normalized Notch-reporter luminescence, relative to DMSO basis level of 1.0 [1] | Activity Range: weighted arithmetic mean (AVEw) of normalized fluorescence intensity, proliferation assay with HH cells [2] | activity at 20 µM [3] | activity at 20 µM [4]
C[C@H](NC(=O)Cc1cc(F)cc(F)c1)C(=O)N[C@H](C(=O)OC(C)(C)C)c1ccccc1 [DAPT] | 0.1 ± 0.0 | – | – | –
NS(=O)(=O)C#Cc1ccccc1 [PES] | – | 0.6 ± 0.1 | – | –
CN(C)C(c1ccc(Oc2ccc(C34CC5CC(CC(C5)C3)C4)cc2)cc1)C(F)(F)F (stereo not shown) [XPW-0042, 1-(4-(4-((3r,5r,7r)-adamantan-1-yl)phenoxy)phenyl)-2,2,2-trifluoro-N,N-dimethylethan-1-amine] | – | – | 80 to 90% | 80 to 90%
CN(O)C(c1ccc(Oc2ccc(C34CC5CC(CC(C5)C3)C4)cc2)cc1)C(F)(F)F (stereo not shown) [XPW-0182, N-(1-(4-(4-((3r,5r,7r)-adamantan-1-yl)phenoxy)phenyl)-2,2,2-trifluoroethyl)-N-methyl hydroxylamine] | – | – | 40 to 60% | 40 to 60%
CN(C)C(C#N)c1ccc(Oc2ccc(C3CCCCC3)cc2)cc1 (stereo not shown) [XPW-0314, 2-(4-(4-cyclohexylphenoxy)phenyl)-2-(dimethylamino)acetonitrile] | 2.0 ≤ AVEw | – | 40 to 60% | –
COCCc1ccc(Oc2ccc(C(=O)N(C)O)cc2)cc1 [XPW-0675, N-hydroxy-4-(4-(2-methoxyethyl)phenoxy)-N-methylbenzamide] | – | – | 40 to 60% | 40 to 60%
N#CN=C(N)c1ccc(Oc2ccc(C3CCCCC3)cc2)nc1 [XPW-0832, N′-cyano-6-(4-cyclohexylphenoxy)nicotinimidamide] | – | – | 70 to 80% | 70 to 80%
CC(C)(C)[S+]([O-])NC(c1ccc(Oc2ccc(C34CC5CC(CC(C5)C3)C4)cc2)cc1)C(F)(F)F (stereo not shown) [XPW-0902, N-(1-(4-(4-((3r,5r,7r)-adamantan-1-yl)phenoxy)phenyl)-2,2,2-trifluoroethyl)-2-methylpropane-2-sulfinamide] | – | – | 0 to 20% | 0 to 20%
O=C(c1ccc(Oc2ccc(C3CCCCC3)cc2)nc1)N1CCOCC1 [XPW-2890, (6-(4-cyclohexylphenoxy)pyridin-3-yl)(morpholino)methanone] | – | – | 70 to 80% | 40 to 60%
NC1(c2ccc(Oc3ccc(C45CC6CC(CC(C6)C4)C5)cc3)nc2)COC1 [XPW-3052] | – | – | 70 to 80% | 60 to 70%
CN(C(c1ccc(Oc2ccc(C34CC5CC(CC(C5)C3)C4)cc2)cc1)C(F)(F)F)[S+]([O-])C(C)(C)C (stereo not shown) [XPW-4642, N-(1-(4-(4-((3r,5r,7r)-adamantan-1-yl)phenoxy)phenyl)-2,2,2-trifluoroethyl)-N,2-dimethylpropane-2-sulfinamide] | – | – | – | 60 to 70%
